pIC50: −log10 of the molar value.
What was measured:
[1] = biological target: T1, Epidermal growth factor receptor (Homo sapiens, UniProt P00533); assay: Inhibition of Epidermal growth factor receptor autophosphorylation.
[2] = biological target: T2, Tyrosine-protein kinase Lck (Homo sapiens, UniProt P06239); assay: Inhibition of p56 Lck tyrosine kinase in Jurkat cells where p56lck autophosphorylation is inhibited.; assay type: cell-based
[3] = biological target: T2, Tyrosine-protein kinase Lck; assay: Inhibition of p56lck kinase autophosphorylation in Jurkat cells; assay type: cell-based
[4] = biological target: T1, Epidermal growth factor receptor
Description: Inhibition of Epidermal growth factor receptor autophosphorylation, 0.05-0.10

T2 sequence (P06239 whole entry): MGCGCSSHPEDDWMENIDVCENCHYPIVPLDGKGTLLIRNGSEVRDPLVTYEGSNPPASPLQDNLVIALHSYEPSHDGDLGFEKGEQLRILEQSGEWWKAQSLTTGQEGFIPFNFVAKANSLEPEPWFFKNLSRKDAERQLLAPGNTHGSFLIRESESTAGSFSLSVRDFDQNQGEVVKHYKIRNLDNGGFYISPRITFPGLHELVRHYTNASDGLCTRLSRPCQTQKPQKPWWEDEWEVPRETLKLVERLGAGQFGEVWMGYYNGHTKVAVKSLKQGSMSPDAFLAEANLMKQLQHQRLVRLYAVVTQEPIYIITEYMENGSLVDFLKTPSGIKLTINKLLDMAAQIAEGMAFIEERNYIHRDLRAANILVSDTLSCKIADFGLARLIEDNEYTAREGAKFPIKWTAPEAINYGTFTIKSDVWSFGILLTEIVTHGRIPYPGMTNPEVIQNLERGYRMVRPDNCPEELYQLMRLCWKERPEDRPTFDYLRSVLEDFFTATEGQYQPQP
T1 sequence (P00533 whole entry): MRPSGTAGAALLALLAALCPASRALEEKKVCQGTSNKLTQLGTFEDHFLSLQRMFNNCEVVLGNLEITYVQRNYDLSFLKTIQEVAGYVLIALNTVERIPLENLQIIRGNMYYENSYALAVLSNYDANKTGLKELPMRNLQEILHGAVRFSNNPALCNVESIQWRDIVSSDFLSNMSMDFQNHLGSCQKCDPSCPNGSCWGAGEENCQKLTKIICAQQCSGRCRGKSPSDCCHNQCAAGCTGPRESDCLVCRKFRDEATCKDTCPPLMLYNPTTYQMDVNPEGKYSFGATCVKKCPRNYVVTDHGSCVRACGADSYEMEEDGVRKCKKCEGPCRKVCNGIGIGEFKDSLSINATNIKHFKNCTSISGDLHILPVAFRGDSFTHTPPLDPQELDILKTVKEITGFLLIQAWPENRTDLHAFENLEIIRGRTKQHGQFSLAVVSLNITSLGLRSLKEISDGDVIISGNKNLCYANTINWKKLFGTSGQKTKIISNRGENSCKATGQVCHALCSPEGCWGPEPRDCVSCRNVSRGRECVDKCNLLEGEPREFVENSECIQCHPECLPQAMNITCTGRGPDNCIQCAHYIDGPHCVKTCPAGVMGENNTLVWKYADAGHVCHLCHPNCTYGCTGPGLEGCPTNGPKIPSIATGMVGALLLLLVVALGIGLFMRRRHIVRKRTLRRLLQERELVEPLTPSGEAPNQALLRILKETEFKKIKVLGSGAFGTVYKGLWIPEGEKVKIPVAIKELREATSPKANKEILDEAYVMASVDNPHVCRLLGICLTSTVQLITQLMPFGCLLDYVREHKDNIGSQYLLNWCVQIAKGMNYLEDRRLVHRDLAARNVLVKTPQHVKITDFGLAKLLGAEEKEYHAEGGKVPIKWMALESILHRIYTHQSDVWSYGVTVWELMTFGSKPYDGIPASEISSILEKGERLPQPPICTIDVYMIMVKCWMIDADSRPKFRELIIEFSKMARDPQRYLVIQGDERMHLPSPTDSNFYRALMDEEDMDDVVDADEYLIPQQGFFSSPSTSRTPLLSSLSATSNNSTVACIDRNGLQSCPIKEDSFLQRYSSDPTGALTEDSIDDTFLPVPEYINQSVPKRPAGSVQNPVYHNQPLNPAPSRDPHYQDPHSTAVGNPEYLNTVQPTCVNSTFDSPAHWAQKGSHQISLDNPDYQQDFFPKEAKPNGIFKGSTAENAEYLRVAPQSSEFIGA

Compound | pIC50 [1] | pIC50 [2] | other results
COc1cc2ncnc(Oc3cccc(Cl)c3)c2cc1OC | 7.70 | – | –
COc1cc(Nc2[nH]cnc3ncnc2-3)cc(OC)c1OC | – | 4.30 | –
COc1cc(Nc2[nH]cnc3nncc2-3)cc(OC)c1OC | – | 5.00 | –
COc1cc2ncnc(Nc3cccc(Cl)c3)c2cc1OC | – | – | pIC50 [3]: 5.30
COc1cc2ncnc(Nc3cccc(F)c3)c2cc1OC | – | 5.00 | –
COc1cc2ncnc(Nc3ccccc3)c2cc1OC | – | – | pIC50 [3]: 5.00
COc1ccc2ncnc(Nc3cc(OC)c(OC)c(OC)c3)c2c1 | 7.00 | 5.00 | –
COc1cc(Nc2ncnc3c(OC)c(OC)c(OC)cc23)cc(OC)c1OC | < 4.70 | < 4.00 | –
COc1cc2ncnc(N(C)c3ccccc3)c2cc1OC | – | – | pIC50 [3]: < 4.00
COc1ccc(Nc2ncnc3cc(OC)c(OC)cc23)cc1OC | 6.46 | – | pIC50 ([2]; jurkat): 5.00
COc1cc2ncnc(NCc3ccccc3)c2cc1OC | 8.40 | – | –
Clc1cccc(Nc2ncnc3ccccc23)c1 | – | – | pIC50 [3]: 4.30; pIC50 [4]: 7.30
COc1cc2ncnc(Nc3ccc4c(c3)CCC4)c2cc1OC | – | 4.30 | –
COc1cc2ncnc(Nc3ccc(N4CCOCC4)cc3)c2cc1OC | < 6.00 | < 4.00 | –
COc1c(C=O)c(O)cc2c1C(=O)c1ccccc1C2=O [DAMNACANTHAL] | – | 7.77 | –

Continued, in another order:

pIC50 [1] | pIC50 [2] | Compound | other results
< 4.30 | < 4.30 | COc1ccc(Sc2ncnc3cc(OC)c(OC)cc23)cc1OC | –
8.00 | – | COc1cc2ncnc(Sc3cccc(Cl)c3)c2cc1OC | –
< 4.70 | < 4.00 | COc1cc2nc(Cl)nc(Nc3cc(OC)c(OC)c(OC)c3)c2cc1OC | –
6.60 | 5.00 | COc1ccc(Nc2ncnc3cc(OC)c(OC)cc23)cc1 | –
5.52 | – | COc1cc(Nc2ncnc3cc(OC)c(OC)cc23)cc(OC)c1 | pIC50 ([3]; jurkat): 5.00
< 4.70 | < 4.00 | COc1cc(Nc2ncnc3c(C)cc(C)cc23)cc(OC)c1OC | –
< 6.00 | < 4.30 | COc1cc(Nc2ncnc3ccc(Cl)cc23)cc(OC)c1OC | –
7.00 | 5.52 | COc1cc2ncnc(Nc3ccc(O)cc3)c2cc1OC | –

— ChEMBL document CHEMBL1129839, “The preparation and sar of 4-(anilino), 4-(phenoxy), and 4-(thiophenoxy)-quinazolines: Inhibitors of p56lck and EGF-R tyrosine kinase activity” (Bioorg Med Chem Lett, 1997)
